The experiment addresses DB3 VH/K expressed as an ARM. Put plainly: Inhibition by free steroids of DB3 VH/K ARM binding to progesterone-coated beads. To be noted: free steroid added to DB3 ARM mixture. The arrangement: species or system mouse. The protocol: FIG. 6. […] This supports the correct folding of the antibody fragment on the ribosome.
The free steroid inibitors were added to the DB3 ARM mixture in order to block binding to the progesterone-coated beads. They are progesterone-11α-hemisuccinate (HMS) (P11), progesterone-3-carboxymethyloxime (P3); progesterone-6-HMS (P6) and progesterone-21-HMS (P21). The inhibition of free DB3 VH/K in an ELISA reaction is shown on the right, with the efficiency of the steroids in the order P11>P3>P6>P21.

On to `CC(=O)[C@H]1CC[C@H]2[C@@H]3CCC4=CC(=O)CC[C@]4(C)[C@H]3[C@H](OC(=O)CCC(=O)O)C[C@]12C` [progesterone-11α-HMS, progesterone-11α-hemisuccinate], for which the “50% inhibition of DB3 VH/K ARM binding” value amounted to 1 ng. The IC50 (read-out: 50% inhibition of DB3 VH/K ARM binding) came to 2.5 nM.

The record behind these values is patent publication US6620587B1, “Ribosome complexes as selection particles for in vitro display and evolution of proteins” (Discerna Limited, priority 1997, dated 2003).
